Measured values taken from PubChem BioAssay (NCI).
Several values for one entry are separate records, joined by “and”; a condition that tells them apart may be missing. Equal entries are not always repeated.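 Five compound concentrations were applied to cells in 96-well plates for 48 hours; endpoints were derived by simple linear interpolation of the resulting dose-response curve. GI50 = concentration required for 50% inhibition of growth. At the TGI there is no net growth.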

Tests used:
Experiment in all cases: NCI anticancer screen, dose series, 48 h
HCC-2998 colon = test system: HCC-2998 colon
HOP-92 NSCLC = test system: HOP-92 NSCLC
MDA-MB-231 breast = test system: MDA-MB-231 breast
MDA-N = test system: MDA-N
NCI-H226 lung = test system: NCI-H226 lung
NCI/ADR-RES ovarian = test system: NCI/ADR-RES ovarian
OVCAR-3 ovarian = test system: OVCAR-3 ovarian
OVCAR-5 ovarian = test system: OVCAR-5 ovarian
OVCAR-8 ovarian = test system: OVCAR-8 ovarian
SF-539 CNS = test system: SF-539 CNS
SK-MEL-28 melanoma = test system: SK-MEL-28 melanoma
SK-MEL-5 melanoma = test system: SK-MEL-5 melanoma
MALME-3M melanoma = test system: MALME-3M melanoma
NCI-H522 lung = test system: NCI-H522 lung
SF-268 CNS = test system: SF-268 CNS

| SMILES | TGI (HCC-2998 colon) | TGI (HOP-92 NSCLC) | TGI (MDA-MB-231 breast) | TGI (MDA-N) | TGI (NCI-H226 lung) | TGI (NCI/ADR-RES ovarian) | TGI (OVCAR-3 ovarian) | TGI (OVCAR-5 ovarian) | TGI (OVCAR-8 ovarian) | TGI (SF-539 CNS) [µM] | TGI (SK-MEL-28 melanoma) | TGI (SK-MEL-5 melanoma) | TGI (MALME-3M melanoma) | TGI (NCI-H522 lung) [µM] | TGI (SF-268 CNS) | GI50 (HCC-2998 colon) | GI50 (MDA-MB-231 breast) | GI50 (NCI/ADR-RES ovarian) | GI50 (OVCAR-8 ovarian) | GI50 (SK-MEL-28 melanoma) |
| --- | --- | --- | --- | --- | --- | --- | --- | --- | --- | --- | --- | --- | --- | --- | --- | --- | --- | --- | --- | --- |
| CSC12c3cc(C)n(-c4ccc([N+](=O)[O-])cc4)c3CC(C)(C)CN1C(=O)C2Oc1ccccc1 (stereo not drawn) | > 100 µM | > 100 µM | > 100 µM | > 100 µM | > 100 µM | > 100 µM | > 100 µM | > 100 µM | > 100 µM | > 100 | > 100 µM | > 100 µM | – | – | – | – | – | – | – | – |
| COc1ccc(C(CC2(c3ccc(OC)cc3)SCCCS2)NC(C)=O)cc1 (stereo not drawn) | > 100 µM | > 100 µM | > 100 µM | > 100 µM | – | 73.4 µM | > 100 µM | > 100 µM | > 100 µM | > 100 | > 100 µM | 37.7 µM | > 100 µM | > 100 | > 100 µM | – | – | – | – | – |
| N#CC(c1ccccc1)N(CCCCCCN(C(=O)c1ccccc1)C(C#N)c1ccccc1)C(=O)c1ccccc1 (stereo not drawn) | 48.1 µM | 50.3 µM | > 100 µM | > 100 µM | > 100 µM | 51.2 µM | > 100 µM | > 100 µM | > 100 µM | > 100 | > 100 µM | 32.9 µM | > 100 µM | – | > 100 µM | – | – | – | – | – |
| O=c1c2cc(-c3ccccc3)cnc2sn1-c1ccc(Br)cc1 | > 100 µM | > 100 µM | > 100 µM | > 100 µM | > 100 µM | > 100 µM | > 100 µM | > 100 µM | > 100 µM | > 100 | > 100 µM | – | > 100 µM | > 100 | > 100 µM | – | – | – | – | – |
| C[C@H](C1CC(C)(O)C(C)(O)C(O)O1)[C@H]1CC[C@H]2[C@@H]3[C@@H]4O[C@@H]4[C@@]4(O)CC=CC(=O)[C@]4(C)[C@H]3CC[C@]12C (stereo partly drawn) | > 50 µM | > 50 µM | > 50 µM | > 50 µM | > 50 µM | > 50 µM | > 50 µM | > 50 µM | > 50 µM | – | > 50 µM | > 50 µM | 31.5 µM | > 50 | > 50 µM | – | – | – | – | – |
| N#C/C(=C\c1ccc(F)cc1)c1nc(-c2cc3ccccc3oc2=O)cs1 | > 100 µM | 29.5 µM | 33.7 µM | > 100 µM | > 100 µM | > 100 µM | – | > 100 µM | 71.9 µM | 65.9 | > 100 µM | 41.6 µM | 52.9 µM | 74.4 | 46.2 µM | – | – | – | – | – |
| N#CC12C(=O)N3C(=NC(c4ccco4)NC3c3ccco3)C1(C#N)C(c1ccco1)NC1=C2CCCC1 (stereo not drawn) | > 100 µM | > 100 µM | > 100 µM | > 100 µM | > 100 µM | > 100 µM | – | > 100 µM | > 100 µM | – | > 100 µM | > 100 µM | > 100 µM | > 100 | > 100 µM | – | – | – | – | – |
| Cc1ccc2c(c1)C(=C(C#N)C#N)CCCS2(=O)=O | > 100 µM | > 100 µM | > 100 µM | > 100 µM | > 100 µM | > 100 µM | > 100 µM | > 100 µM | > 100 µM | > 100 | > 100 µM | – | – | – | > 100 µM | – | – | – | – | – |
| Cc1ccc2c(=O)cc(-c3sccc3C)[nH]c2n1 | 7.13 µM | > 100 µM | > 43.4 µM | 0.359 µM | 6.55 µM | 0.693 µM | > 100 µM | > 100 µM | > 31.8 µM | 1.79 | – | 3.88 µM | > 69.1 µM | – | > 56.4 µM | – | – | – | – | – |
| CC(C)CC(NC(=O)C(C)(CI)Cc1ccccc1)C(=O)Nc1ccccc1 (stereo not drawn) | > 100 µM | > 100 µM | > 100 µM | > 100 µM | > 100 µM | > 100 µM | > 100 µM | > 100 µM | > 100 µM | > 100 | – | > 100 µM | > 100 µM | > 100 | – | – | – | – | – | – |
| COC(=O)CCC(=O)c1ccc2c(c1)CCC2 | > 100 µM | > 100 µM | > 100 µM | > 100 µM | – | > 100 µM | > 100 µM | > 100 µM | > 100 µM | > 100 | > 100 µM | > 100 µM | > 100 µM | > 100 | > 100 µM | – | – | – | – | – |
| CC1OC(OC2C(OC(=O)[C@]34CCC(C)(C)C[C@H]3C3=CC[C@@H]5[C@@]6(C)CC[C@H](OC7OC(C(=O)O)C(O)C(O)C7O)C(C)(C)[C@@H]6CC[C@@]5(C)[C@]3(C)C[C@H]4O)OCC(O)C2O)C(O)C(O)C1OC1OCC(O)C(O)C1O (stereo partly drawn) | 12.7 µM and 3.07 µM | 26.9 µM and 24.4 µM | 22.3 µM and 8.24 µM | 27.3 µM and 23.5 µM | 19.2 µM and 25.9 µM | 27.1 µM and 19 µM | 32.2 µM and 29.1 µM | 28.5 µM and 23 µM | 26.5 µM and 5.19 µM | – | 29.1 µM and 22 µM | 30.5 µM and 34.7 µM | 27.8 µM and 25.6 µM | 24.4 | 34.6 µM and 25.4 µM | 4.02 µM and 1.4 µM | 9.19 µM and 3.49 µM | 13 µM and 5.11 µM | 13.2 µM and 2.33 µM | 14.9 µM and 7.34 µM |
| Cc1ccc([N+](=O)[O-])cc1S(=O)(=O)Nc1ccc(C2=NN(S(=O)(=O)c3cc([N+](=O)[O-])ccc3C)C(c3ccccc3)C2)cc1 (stereo not drawn) | 59.8 µM | > 100 µM | 90.9 µM | 97.3 µM | > 100 µM | 81.1 µM | 89.4 µM | > 100 µM | > 100 µM | – | > 100 µM | > 100 µM | 62.8 µM | 50.6 | 56.7 µM | – | – | – | – | – |
| CCOC(=O)C1(C#N)OC(=O)c2cnccc21 (stereo not drawn) | > 100 µM | > 100 µM | > 100 µM | > 100 µM | > 100 µM | > 100 µM | > 100 µM | > 100 µM | > 100 µM | > 100 | > 100 µM | – | > 100 µM | > 100 | > 100 µM | – | – | – | – | – |
| COC(=O)c1c([N+](=O)[O-])ncn1[C@H]1OC[C@@H](OC(C)=O)[C@@H](OC(C)=O)[C@@H]1OC(C)=O | > 100 µM | > 100 µM | > 100 µM | > 100 µM | > 100 µM | > 100 µM | > 100 µM | > 100 µM | > 100 µM | > 100 | > 100 µM | – | > 100 µM | > 100 | > 100 µM | – | – | – | – | – |
| CC1=C(C(=O)OC2CC3CCC2(C)C3(C)C)C2Nc3ccccc3N(C)C2O1 (stereo not drawn) | 3.91 µM | 20.8 µM | 16.9 µM | 3.55 µM | 39.3 µM | 12.6 µM | 11.9 µM | 25.9 µM | 9.02 µM | – | 16 µM | 3.53 µM | – | 4.02 | 22.5 µM | – | – | – | – | – |
| Oc1c(Br)cc(/C=C/c2ccnc(/C=C/c3cc(Br)c(O)c(Br)c3)c2)cc1Br | > 100 µM | > 100 µM | 59.4 µM | 91.3 µM | – | 92.6 µM | 53.1 µM | 55.3 µM | 83.9 µM | 33 | > 100 µM | 41 µM | – | – | > 100 µM | – | – | – | – | – |
| CCN1CCC(O)(c2ccc(Oc3ccc(Cl)cc3)cc2)C(C(=O)c2ccc(Oc3ccc(Cl)cc3)cc2)C1 (stereo not drawn) | 25 µM | 24.8 µM | 29.4 µM | 27 µM | 34.5 µM | 39.9 µM | – | 26.4 µM | 38.6 µM | 30.3 | 58.6 µM | 24.7 µM | 35.6 µM | 12 | 44.3 µM | – | – | – | – | – |
| CC1=NN(c2cccc(Cl)c2)C2(SCC(=O)N2c2nc3ccccc3s2)C1=CC=Cc1ccccc1 (stereo not drawn) | > 100 µM | 45.5 µM | 72 µM | > 100 µM | > 100 µM | > 100 µM | > 100 µM | > 100 µM | > 100 µM | > 100 | > 100 µM | 47 µM | – | 62.3 | 93.5 µM | – | – | – | – | – |
| O=C1/C(=C/c2cccc(Cl)c2)CCCc2ccccc21 | 32.5 µM | 60.4 µM | 38.2 µM | 31.9 µM | 30.7 µM | 35.9 µM | 55.8 µM | 31.2 µM | 33.6 µM | 32.1 | 33.6 µM | – | 33.8 µM | 32.1 | 33.4 µM | – | – | – | – | – |
| CC1CC(N)=C(C#N)C1(C#N)C#N (stereo not drawn) | > 100 µM | > 100 µM | > 100 µM | > 100 µM | > 100 µM | > 100 µM | – | > 100 µM | > 100 µM | > 100 | – | – | > 100 µM | > 100 | > 100 µM | – | – | – | – | – |
| COc1cc(OC)cc(OCc2nc3cc(C(F)(F)F)ccc3nc2-c2ccccc2)c1 | > 100 µM | > 100 µM | > 100 µM | > 100 µM | > 100 µM | > 100 µM | > 100 µM | > 100 µM | > 100 µM | > 100 | > 100 µM | – | > 100 µM | > 100 | > 100 µM | – | – | – | – | – |
| CC(=O)OCCn1cnc2c(NCC=C(C)C)ncnc21 | – | > 100 µM | > 100 µM | > 100 µM | > 100 µM | > 100 µM | > 100 µM | > 100 µM | > 100 µM | > 100 | > 100 µM | > 100 µM | > 100 µM | > 100 | > 100 µM | – | – | – | – | – |
| COc1ccc(N=c2oc3ccccc3cc2C(N)=O)cc1 | > 100 µM | > 100 µM | > 100 µM | > 100 µM | > 100 µM | > 100 µM | > 100 µM | – | > 100 µM | 63.6 | > 100 µM | > 100 µM | – | 93.1 | 42.6 µM | – | – | – | – | – |
